According to patent publication US8399196B2, “Nucleic acid sequencing methods, kits and reagents” (GeneForm Technologies Limited, priority 2003, dated 2013):
Read-outs that look alike come from different tables or passages of the source.

Target: T1, Klenow exo- with template-primer (Escherichia coli, UniProt P00582, D355A/E357A)
T1 construct: purchased New England Biolabs
Assay type: binding
Details: for signal +polymerase + DUpNHPP: 0.3 uM Dye-DUTP conjugate, buffer background subtracted
Procedure: (1) Dideoxy terminated primer and template were mixed at a ratio of 2:1 (final template concentrations were varied as shown)
(2) DGTP DCTP and DATP was added to a final concentration of 1 mM.
(3) 0.3 uM of Intercalator-Dye-DUTP conjugate was added to the system.
(4) In some samples non-incorporable DUTP (DUPNHPP) was added as shown.
(5) 300 nM Klenow exo- was added
(6) The system was heated to at 37° C.
Where the intercalating dye is conjugated to DNPNHPP or other nonincorporable entities, then the dideoxy terminated primer is unnecessary and will allow sequential sequencing if a limited concentration of native bases are added.
Buffer background subtracted.

T1 sequence (P00582 324-928 D355A/E357A): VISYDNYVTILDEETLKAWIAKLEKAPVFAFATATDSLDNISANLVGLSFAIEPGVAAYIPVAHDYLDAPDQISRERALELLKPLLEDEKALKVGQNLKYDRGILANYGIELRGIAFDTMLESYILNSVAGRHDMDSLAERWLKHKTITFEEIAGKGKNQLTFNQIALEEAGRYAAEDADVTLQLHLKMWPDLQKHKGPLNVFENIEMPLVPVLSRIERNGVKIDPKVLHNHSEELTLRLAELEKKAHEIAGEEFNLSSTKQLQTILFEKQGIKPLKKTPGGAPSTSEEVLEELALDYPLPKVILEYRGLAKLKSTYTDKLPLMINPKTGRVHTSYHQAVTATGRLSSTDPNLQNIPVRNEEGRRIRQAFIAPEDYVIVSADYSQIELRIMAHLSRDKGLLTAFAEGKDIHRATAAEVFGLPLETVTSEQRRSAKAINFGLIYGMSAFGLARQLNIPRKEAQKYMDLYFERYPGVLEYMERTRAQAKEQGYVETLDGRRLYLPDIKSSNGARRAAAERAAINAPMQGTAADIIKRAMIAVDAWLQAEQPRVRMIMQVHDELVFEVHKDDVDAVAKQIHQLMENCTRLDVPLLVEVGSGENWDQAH

O=c1ccn([C@H]2CC(O)[C@@H](COP(=O)(O)NP(=O)(O)OP(=O)(O)O)O2)c(=O)[nH]1 (stereo partly shown) [DUPNHPP]
signal, T-P + Dye-DUTP + Primer1 + DUPNHPP (DUPNHPP added in competition with 0.3 uM Dye-DUTP, DUPNHPP concentration not given): 320 | signal +polymerase + DUpNHPP (Template-primer-a 0.015625 uM): 55 | signal +polymerase + DUpNHPP (Template-primer-a 0.03125 uM): 114 | signal +polymerase + DUpNHPP (Template-primer-a 0.0625 uM): 234 | signal +polymerase + DUpNHPP (Template-primer-a 0.125 uM): 438 | signal +polymerase + DUpNHPP (Template-primer-a 0.25 uM): 916 | signal +polymerase + DUpNHPP (Template-primer-a 0.5 uM): 1802
